# From patent US20260034119A1, “5-METHOXY-N,N-[…][…], THEIR […], AND METHODS FOR TREATMENT OF NEUROLOGICAL, […], AND SUBSTANCE USE DISORDERS” (priority 2023, published 2026)
# Numbering of substitutions follows the chain as printed. Entries after “also recorded” stand apart in the source; their conditions may differ. Where two headings read alike, the source gives them in different places.
# Experiments:
# 5-HT1A A365N = biological target: T1, 5-HT1A A365N (Homo sapiens, UniProt P08908, A365N); assay: Gi1 BRET at mutant 5-HT1A A365N; assay type: cell-based; conditions: Gi1 BRET, 5-HT1A A365N^6.55
# T1 construct: expressed in transfected cells; host or cells: HEK293-T
# T1 sequence (P08908 1-422 A365N): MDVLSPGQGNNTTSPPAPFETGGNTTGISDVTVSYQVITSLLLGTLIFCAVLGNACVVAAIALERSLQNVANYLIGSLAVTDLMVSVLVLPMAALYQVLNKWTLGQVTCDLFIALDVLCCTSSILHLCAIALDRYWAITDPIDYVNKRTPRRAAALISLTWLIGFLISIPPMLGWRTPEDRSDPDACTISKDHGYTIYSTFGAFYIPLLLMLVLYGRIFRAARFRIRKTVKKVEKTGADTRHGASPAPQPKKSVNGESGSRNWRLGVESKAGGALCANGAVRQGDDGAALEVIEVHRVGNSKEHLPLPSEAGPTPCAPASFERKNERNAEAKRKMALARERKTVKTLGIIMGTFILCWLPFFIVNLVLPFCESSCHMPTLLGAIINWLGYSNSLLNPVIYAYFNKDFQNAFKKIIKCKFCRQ
# 5-HT1A = 5-HT1A (Homo sapiens, UniProt P08908); assay: BRET signaling assay: 5-HT1A-mediated activation of heterotrimeric Gi1 (TRUPATH, HEK293-T)
# 5-HT1A N386V = biological target: T2, 5-HT1A N386V (Homo sapiens, UniProt P08908, N386V); assay: Gi1 BRET at mutant 5-HT1A N386V; assay type: cell-based; conditions: Gi1 BRET, 5-HT1A N386V^7.39
# T2 construct: expressed in transfected cells; host or cells: HEK293-T
# T2 sequence (P08908 1-422 N386V): T1 sequence (P08908 1-422 A365N) with N365A, N386V
# 5-HT2A V366N = biological target: T3, 5-HT2A V366N (Homo sapiens, UniProt P28223, V366N); assay: Gq BRET at mutant 5-HT2A V366N; assay type: cell-based; conditions: Gq BRET, 5-HT2A V366N^7.39
# T3 construct: expressed in transfected cells; host or cells: HEK293-T
# [1] = Human plasma protein binding; assay type: in vitro ADME; conditions: for fraction unbound: human, plasma
# [2] = tested on: all human 5-HT receptor subtypes; assay: PRESTO-TANGO arrestin-recruitment assay; assay type: cell-based; conditions: compared with 5-HT1A
# Procedure: The receptor contructs were obtained from Addgene and contain the TEV cleavage site and the tetracycline transactivator (tTA) fused to the C terminus of the receptor. For the assay, constructs were transfected into HTLA cells (kindly provided by Dr. Bryan Roth, University of North Carolina), which express TEV fused-β-Arrestin2 and a tetracycline transactivator-driven luciferase and are necessary for this assay. A day before the assay cells were cultured in DMEM supplemented with 1% dFBS and transfected with 8 μg of DNA per 7 million cells in a 10 cm plate using PEI transfection. The next day, 20,000 cells in 40 μl were then plated in poly-L-lysine-coated clear-bottom 384-well plates in the same media and incubated for at least 5 hr before stimulation. […] After 16-24 hr overnight incubation, media and drug solutions were aspirated and 20 μl per well of BrightGlo reagent (purchased from Promega, after 1:20 dilution) was added per well. The plate was incubated for 20 min at room temperature in the dark before being counted using a MicroBeta TriLux liquid scintillation counter.
# [3] = Mouse plasma protein binding; assay type: in vitro ADME; conditions: for fraction unbound: mouse, plasma
# [4] = Mouse brain tissue binding; assay type: in vitro ADME; conditions: for fraction unbound: mouse, brain tissue
# C57BL/6J mice = assay: Social interaction test after chronic social defeat stress (CSDS)
# 5-HT2A = 5-HT2A (Homo sapiens, UniProt P28223)
# [5] = read-out: % Bound Mean (converted)
# [6] = replicate R1, read-out: % Bound R1 (converted)
# [7] = replicate R2, read-out: % Bound R2 (converted)
# 5-HT2A, sequence (P28223 whole entry): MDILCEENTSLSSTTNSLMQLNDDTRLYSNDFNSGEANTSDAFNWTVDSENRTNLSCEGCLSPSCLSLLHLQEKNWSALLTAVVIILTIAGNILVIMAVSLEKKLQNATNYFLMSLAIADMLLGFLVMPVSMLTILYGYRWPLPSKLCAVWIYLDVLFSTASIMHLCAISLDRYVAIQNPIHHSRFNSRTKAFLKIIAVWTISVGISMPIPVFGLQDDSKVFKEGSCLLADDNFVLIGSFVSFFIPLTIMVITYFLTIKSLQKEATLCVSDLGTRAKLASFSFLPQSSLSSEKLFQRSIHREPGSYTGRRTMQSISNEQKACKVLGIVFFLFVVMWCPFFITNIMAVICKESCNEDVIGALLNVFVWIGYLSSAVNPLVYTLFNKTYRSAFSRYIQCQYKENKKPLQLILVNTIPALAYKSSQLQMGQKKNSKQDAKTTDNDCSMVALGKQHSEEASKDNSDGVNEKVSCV
# 5-HT1A, sequence (P08908 whole entry): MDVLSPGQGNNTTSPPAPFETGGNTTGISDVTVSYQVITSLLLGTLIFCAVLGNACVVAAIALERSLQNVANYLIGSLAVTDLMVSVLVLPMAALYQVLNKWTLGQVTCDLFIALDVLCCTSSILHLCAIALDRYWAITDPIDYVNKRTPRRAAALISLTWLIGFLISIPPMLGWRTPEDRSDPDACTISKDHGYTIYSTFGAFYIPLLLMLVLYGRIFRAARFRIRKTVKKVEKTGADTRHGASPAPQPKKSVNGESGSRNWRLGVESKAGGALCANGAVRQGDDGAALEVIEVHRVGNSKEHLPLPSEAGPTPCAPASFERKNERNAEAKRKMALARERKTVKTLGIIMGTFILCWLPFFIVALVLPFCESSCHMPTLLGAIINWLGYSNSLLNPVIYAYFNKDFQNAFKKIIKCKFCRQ
# T3 sequence (P28223 whole entry V366N): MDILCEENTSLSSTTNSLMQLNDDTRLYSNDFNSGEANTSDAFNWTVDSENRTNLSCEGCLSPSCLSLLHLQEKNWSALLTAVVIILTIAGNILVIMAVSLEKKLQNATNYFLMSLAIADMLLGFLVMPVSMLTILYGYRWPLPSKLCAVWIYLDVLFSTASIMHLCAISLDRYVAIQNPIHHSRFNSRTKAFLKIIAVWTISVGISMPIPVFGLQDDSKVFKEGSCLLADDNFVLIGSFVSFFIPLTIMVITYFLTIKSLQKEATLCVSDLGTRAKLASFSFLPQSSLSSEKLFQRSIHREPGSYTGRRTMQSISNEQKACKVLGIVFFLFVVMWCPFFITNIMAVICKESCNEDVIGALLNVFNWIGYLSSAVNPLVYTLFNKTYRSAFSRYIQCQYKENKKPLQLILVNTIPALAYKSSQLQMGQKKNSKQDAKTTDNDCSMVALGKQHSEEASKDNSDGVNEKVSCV
structure (smiles),measurement,setting,value
"COc1ccc2[nH]cc(CCN3CCCC3)c2c1F [4-F, 5-MeO-PyrT, 4-Fluoro, 5-methoxypyrrolidinyl-tryptamine]",pEC50,5-HT1A A365N,"(8.29,"
same,EC50,5-HT1A A365N; read-out: EC50,5.08 nM
same,"Emax, 5-HT1A-mediated activation of Gi1 (BRET)",5-HT1A,102.8 % of 5-HT
same,pEC50,"5-HT1A; Gi1 BRET, 5-HT1A WT","(9.43,"
same,EC50,5-HT1A; read-out: Gi BRET EC50,0.37 nM
same,pEC50,5-HT1A N386V,"(8.52,"
same,EC50,5-HT1A N386V; read-out: EC50,3 nM
same,pEC50,5-HT2A V366N,"(6.8,"
same,EC50,5-HT2A V366N; read-out: EC50,157 nM
same,recovery,[1],81.8%
same,% Compound remaining at 4 h,[1]; 4 h,97.9%
same,fraction unbound,[1]; [5],0.74
same,fraction unbound,[1]; read-out: % Unbound,0.74
same,fraction unbound,[1]; read-out: fu,0.74
same,fraction unbound,[1]; [6],0.778
same,fraction unbound,[1]; [7],0.702
same,activity at all other G protein-coupled serotonin receptors,[2],substantially lower activity
same,recovery,[3],84.7%
same,% Compound remaining at 4 h,[3]; 4 h,105.6%
same,fraction unbound,[3]; [5],0.626
same,fraction unbound,[3]; read-out: % Unbound,0.626
same,fraction unbound,[3]; read-out: fu,0.626
same,fraction unbound,[3]; [6],0.68
same,fraction unbound,[3]; [7],0.573
same,brain tissue binding,[4],82.5%
same,recovery,[4],88%
same,% Compound remaining at 4 h,[4]; 4 h,96%
same,fraction unbound,[4]; [5],0.175
same,fraction unbound,[4]; read-out: % Unbound,0.175
same,fraction unbound,[4]; read-out: fu,0.175
same,fraction unbound,[4]; [6],0.157
same,fraction unbound,[4]; [7],0.193
same,number of resilient mice (SI ratio >1),C57BL/6J mice; drug- vs vehicle-treated stressed animals,markedly increases the number of resilient mice
same,general locomotion at the social interaction test,"C57BL/6J mice; mice, one s.c. administration",no effects of the pharmacological intervention on general locomotion; also recorded: no apparent alterations in locomotor activity
same,amelioration of SI deficits under WAY-100635 co-administration,"C57BL/6J mice; stressed mice, co-administered 5-HT1A antagonist WAY-100635",blocked
same,corner time (anxiety-like behavior),"C57BL/6J mice; stressed mice, one s.c. administration",rescued; also recorded: no longer observed
same,social interaction deficit induced by chronic social defeat stress,"C57BL/6J mice; stressed mice, one s.c. administration, test 24 hr post drug",rescued; also recorded: rescuing the social interaction deficit
same,EC50,"5-HT2A; Gq BRET, 5-HT2A WT",300 nM
same,pEC50,"5-HT2A; Gq BRET, 5-HT2A WT","(6.52,"
same,EC50,5-HT2A; read-out: Gq BRET EC50,300 nM
